In patent US6642392B1 (priority 1997, dated 2003):
Read-outs that look alike come from different tables or passages of the source.

Columns and labels:
Type in all cases: in vivo
[1] = tested on: Puccinia recondita; assay: Test B: wheat leaf rust, preventive spray on wheat seedlings; details: for Test B disease control rating: wheat leaf rust; for Test B disease control rating (100 = 100% disease control, 0 = no disease control): wheat seedlings sprayed to run-off, inoculated the following day, rating relative to controls, unmarked compounds (standard test rate)
In short: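 Preventive test: P. recondita spores were applied one day after a run-off spray of compound suspension on wheat seedlings. Plants had 24 h at 20 °C in saturated air plus 6 days in a 20 °C growth chamber. Scoring is % disease control (100 = full) relative to controls.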

[2] = tested on: Botrytis cinerea; assay: Test E: gray mold, preventive spray on cucumber seedlings; details: for Test E disease control rating: gray mold on cucumber; for Test E disease control rating (100 = 100% disease control, 0 = no disease control): cucumber seedlings sprayed to run-off, inoculated the following day, rating relative to controls, unmarked compounds (standard test rate)
In short: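 Preventive spray on cucumber seedlings used a suspension (3% acetone, 250 ppm Trem 014), applied to run-off one day before inoculation with Botrytis cinerea spores. Plants were held 48 h at 20° C in saturated air, then 5 days at 20° C. Percent disease control was scored relative to untreated plants.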

[3] = tested on: Pyricularia oryzae; details: for Test C disease control rating: rice blast; for Test C disease control rating (100 = 100% disease control, 0 = no disease control): rice seedlings sprayed to run-off, inoculated the following day, rating relative to controls, unmarked compounds (standard test rate)
[4] = tested on: Eiysiphe graminis f. sp. tritici; assay: Test A: wheat powdery mildew, preventive spray on wheat seedlings; details: for Test A disease control rating: wheat powdery mildew; for Test A disease control rating (100 = 100% disease control, 0 = no disease control): wheat seedlings sprayed to run-off, inoculated the following day, rating relative to controls, unmarked compounds (standard test rate)
In short: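 Preventive test: seedlings inoculated with powdery mildew spores one day after run-off spraying of a suspension. Ratings after 7 days in a 20° C growth chamber express percent disease control versus controls.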

[5] = tested on: Phytophthora infestans; details: for Test D disease control rating: tomato late blight; for Test D disease control rating (100 = 100% disease control, 0 = no disease control): tomato seedlings sprayed to run-off, inoculated the following day, rating relative to controls, unmarked compounds (standard test rate)
[6] = 100 = 100% disease control, 0 = no control, unmarked entries (standard test concentration)
[7] = 100 = 100% disease control, 0 = no control relative to controls, unmarked entries (standard test concentration)

| SMILES | Test B disease control rating [1, 6] [%] | Test E disease control rating [2, 6] [%] | Test C disease control rating [3, 6] [%] | Test A disease control rating [4, 7] [%] | Test D disease control rating [5, 6] [%] | Test B disease control rating (100 = 100% disease control, 0 = no disease control) [1] [%] | Test E disease control rating (100 = 100% disease control, 0 = no disease control) [2] [%] | Test C disease control rating (100 = 100% disease control, 0 = no disease control) [3] [%] | Test A disease control rating (100 = 100% disease control, 0 = no disease control) [4] [%] | Test D disease control rating (100 = 100% disease control, 0 = no disease control) [5] [%] | further results |
| --- | --- | --- | --- | --- | --- | --- | --- | --- | --- | --- | --- |
| CC(COc1ccccc1C(F)(F)F)NC(=O)C(C#N)C(C)(C)C (mixture of isomers) [17a] | 67 | 0 | 30 | 85 | 16 |  |  |  |  |  |  |
| CC(COc1cccc(Cl)c1C#N)NC(=O)C(C#N)C(C)C(C)(C)C (mixture of isomers) [compound 64] | 0 | 0 | 53 | 0 | 2 |  |  |  |  |  |  |
| CCCC(C#N)C(=O)NC(C)C(Oc1ccccc1C#N)c1ccccc1 (mixture of isomers) [compound 288] |  |  |  |  |  | 0 | 0 | 86 | 33 | 0 |  |
| C=CCC(C#N)C(=O)NC(C)C(Oc1cc(F)ccc1F)c1ccccc1 (mixture of isomers) [compound 283] |  |  |  |  |  | 0 | 0 | 99 | 0 | 0 |  |
| CC(COc1cc(Br)ccc1C#N)NC(=O)C(C#N)C(C)(C)C (mixture of isomers) [compound 44] | 0 | 0 | 94 | 0 | 89 |  |  |  |  |  |  |
| CCC1(C(=O)NC(C)COc2cccc(Cl)c2)C(C)C1(Cl)Cl (mixture of isomers) [82a] |  |  |  |  |  |  |  |  |  |  | Test B disease control rating ([1]; tested at 40 ppm): 0%; Test E disease control rating ([2]; tested at 40 ppm): 0%; Test C disease control rating ([3]; tested at 40 ppm): 53%; Test A disease control rating ([4]; tested at 40 ppm): 0%; Test D disease control rating ([5]; tested at 40 ppm): 43% |
| C[C@H](COc1ccc(F)c(Cl)c1)NC(=O)C(C#N)C(C)(C)C (single isomer, unassigned) [183a] | 28 | 0 | 86 | 0 | 35 |  |  |  |  |  |  |
| C[C@H](COc1cc(Cl)ccc1Cl)NC(=O)C(C#N)C(C)(C)C (single isomer, unassigned) [33a] | 0 | 0 | 97 | 0 | 0 |  |  |  |  |  |  |
| CCC1(C(=O)NC(C)COc2ccccc2I)C(C)C1(Cl)Cl (mixture of isomers) [87a] |  |  |  |  |  |  |  |  |  |  | Test B disease control rating ([1]; tested at 40 ppm): 0%; Test E disease control rating ([2]; tested at 40 ppm): 0%; Test C disease control rating ([3]; tested at 40 ppm): 74%; Test A disease control rating ([4]; tested at 40 ppm): 0%; Test D disease control rating ([5]; tested at 40 ppm): 0% |
| CC(COc1cc(OC(F)F)ccc1C#N)NC(=O)C(C#N)C(C)C(C)(C)C (mixture of isomers) [compound 277] |  |  |  |  |  | 0 | 0 | 0 | 0 | 0 |  |
| C[C@H](COc1ccc(Br)cc1)NC(=O)C(C#N)C(C)(C)C (single isomer, unassigned) [10c] | 86 | 0 | 53 | 0 | 35 |  |  |  |  |  |  |
| CCC1(C(=O)NC(C)COc2ccc(F)cc2C#N)C(C)C1(Cl)Cl (mixture of isomers) [compound 129] | 26 | 0 | 74 | 38 | 0 |  |  |  |  |  |  |
| C[C@H](COc1ccc(Cl)cc1)NC(=O)C(C#N)C(C)(C)C (single isomer, unassigned) [7d] | 68 | 6 | 99 | 62 | 0 |  |  |  |  |  |  |
| CCC1(C(=O)NC(C)COc2ccc(Br)cc2)C(C)C1(Cl)Cl (mixture of isomers) [86b] |  |  |  |  |  |  |  |  |  |  | Test B disease control rating ([1]; tested at 40 ppm): 0%; Test E disease control rating ([2]; tested at 40 ppm): 0%; Test C disease control rating ([3]; tested at 40 ppm): 0%; Test A disease control rating ([4]; tested at 40 ppm): 52%; Test D disease control rating ([5]; tested at 40 ppm): 28% |
| CC(C=Cc1ccccc1)NC(=O)C(C#N)C(C)(C)C (mixture of isomers) [compound 228] |  |  |  |  |  | 0 | 47 | 52 | 95 | 7 |  |
| CC(C)(C)C(C#N)C(=O)NC/C=C/c1ccccc1Cl (racemic) [compound 179] | 0 | 58 | 74 | 35 | 23 |  |  |  |  |  |  |
| CC(COc1ccccc1)NC(=O)C1(C)CC1(Cl)Cl (mixture of isomers) [compound 311] |  |  |  |  |  | 0 | 0 | 0 | 84 | 0 |  |
| CCC(C#N)C(=O)N[C@H](C)[C@H](Oc1cc(F)ccc1F)c1ccccc1 (stereo partly shown) [compound 293] |  |  |  |  |  | 0 | 0 | 100 | 0 | 23 |  |
| CC(COc1cc(F)ccc1Cl)NC(=O)C(C#N)C(C)C(C)(C)C (mixture of isomers) [compound 194] | 0 | 0 | 100 | 0 | 0 |  |  |  |  |  |  |
| CCC1(C(=O)NC(C)COc2c(C)cccc2C#N)C(C)C1(Cl)Cl (mixture of isomers) [compound 259] |  |  |  |  |  | 0 | 48 | 91 | 84 | 0 |  |
| CCC1(C(=O)NC(C)COn2c(C#N)cc(Cl)c2C)C(C)C1(Cl)Cl (mixture of isomers) [140b] | 28 | 0 | 74 | 63 | 38 |  |  |  |  |  |  |
| CCCc1cccc(C#N)c1OCC(C)NC(=O)C(C#N)C(C)(C)C (mixture of isomers) [compound 205] | 68 | 0 | 74 | 0 | 0 |  |  |  |  |  |  |
| CCC1(C(=O)NC(C)COc2ccc(Br)cc2F)C(C)C1(Cl)Cl (mixture of isomers) [compound 122] | 0 | 0 | 0 | 0 | 0 |  |  |  |  |  |  |
| CC(COc1cccc(C(F)(F)F)c1C#N)NC(=O)C(C#N)C(C)C(C)(C)C (mixture of isomers) [compound 66] | 0 | 0 | 0 | 0 | 69 |  |  |  |  |  |  |
| CCCc1ccccc1OCC(C)NC(=O)C(C#N)C(C)(C)C (mixture of isomers) [21a] | 68 | 0 | 99 | 38 | 4 |  |  |  |  |  |  |
| CC(C=Cc1cc(F)ccc1F)NC(=O)C(C#N)C(C)(C)C (single isomer, unassigned) [229b] |  |  |  |  |  | 0 | 95 | 100 | 0 | 25 |  |
